Key:
Clostripain = target: T1, Clostripain (Hathewaya histolytica, UniProt P09870); test: Clostripain inhibition; format: biochemical; settings: endopeptidase of Clostridium histolyticum
T1 construct: purchased Sigma Chemical Corp., St. Louis, Mo
Method: Clostripain from Clostridium histolyticum (Sigma Chemical Corp., St. Louis, Mo.) is dissolved in deionized water to a concentration of 1 mg/ml (300 units/mg) and activated with the addition of 10 mmol/L DTT. To measure its hydrolytic activity, clostripain ( 6 units) is added to […] Hepes buffer, pH 7.5, containing 80 μmol/L BAPNA (benzoyl-arginine-p-nitroanilide), together with 5.6 μmol/L of histatin peptide inhibitor. As controls, assays are performed in the absence of any histatin peptide inhibitor. The activity is monitored continuously at 405 nm using a Molecular Devices Vmax microtitre plate reader. The activities are determined from the maximum rates of substrate hydrolysis. Assays are done in duplicate, and the means normalized to the controls.

P. gingivalis 381 = settings: cited from earlier work

T1 sequence (P09870 191-526): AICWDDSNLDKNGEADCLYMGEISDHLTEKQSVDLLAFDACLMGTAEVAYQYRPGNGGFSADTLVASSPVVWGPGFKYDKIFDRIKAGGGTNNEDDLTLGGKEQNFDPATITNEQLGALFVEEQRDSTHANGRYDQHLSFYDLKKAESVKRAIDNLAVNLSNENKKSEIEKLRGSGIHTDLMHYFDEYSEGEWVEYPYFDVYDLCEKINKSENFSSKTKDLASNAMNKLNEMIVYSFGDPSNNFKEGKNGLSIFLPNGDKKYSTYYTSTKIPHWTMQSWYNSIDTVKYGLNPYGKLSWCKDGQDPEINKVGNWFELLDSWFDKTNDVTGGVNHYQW
T1 sequence (P09870 51-181): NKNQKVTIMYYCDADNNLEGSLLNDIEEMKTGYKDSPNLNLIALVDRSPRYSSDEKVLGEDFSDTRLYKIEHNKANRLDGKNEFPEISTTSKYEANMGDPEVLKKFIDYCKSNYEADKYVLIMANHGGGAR

histatin 5
inhibition of clostripain (in words) (Clostripain): can be inhibited
concentration giving complete hemagglutination inhibition (P. gingivalis 381): 5 nmol/mL
inhibition of hemagglutination (in words) (P. gingivalis 381): inhibit hemagglutination

From patent US6531573B1, “Antifungal and antibacterial peptides” (Trustees of Boston University, priority 1997, dated 2003)
